Converted amounts (≈) assume the structure as drawn.
Columns and labels:
[1] = Approximate solubility of starting material in 20 solvents at RT; type: physicochemical
Method: (peak) with one exotherm at 166.1° C. (peak). Approximate solubility of starting material was determined in 20 solvents at RT. Approximately 2 mg of sample was added into a 3-mL glass vial. Solvents in Table 2 were then added stepwise into the vials until the solids were dissolved visually or a total volume of 2 mL was reached. Solubility results summarized in Table 2 were used to guide the solvent selection in screening experiment design.

DVS water uptake = type: physicochemical
Method: DVS was measured via a SMS (Surface Measurement Systems) DVS Intrinsic or Intrinsic Plus. The relative humidity at 25° C. were calibrated against deliquescence point of LiCl, Mg(NO3)2 and KCl.

- solubility ([1]; THE (as stored; likely THF), organic solvent or mixture, thermodynamic from solid, THE, RT): > 44000 µg/mL
- solubility ([1]; organic solvent or mixture, thermodynamic from solid, 1,4-Dioxane, RT): 21000 to 42000 µg/mL (≈ 61 to 122 mM)
- solubility ([1]; organic solvent or mixture, thermodynamic from solid, 2-MeTHF, RT): 2000 to 5000 µg/mL (≈ 5.81 to 14.5 mM)
- solubility ([1]; organic solvent or mixture, thermodynamic from solid, ACN, RT): 9500 to 19000 µg/mL (≈ 27.6 to 55.2 mM)
- solubility ([1]; organic solvent or mixture, thermodynamic from solid, Acetone, RT): > 40000 µg/mL
- solubility ([1]; organic solvent or mixture, thermodynamic from solid, CHCl3, RT): < 1000 µg/mL
- solubility ([1]; organic solvent or mixture, thermodynamic from solid, DCM, RT): 1000 to 2000 µg/mL (≈ 2.9 to 5.81 mM)
- solubility ([1]; organic solvent or mixture, thermodynamic from solid, DMAc, RT): > 40000 µg/mL
- solubility ([1]; organic solvent or mixture, thermodynamic from solid, DMSO, RT): > 40000 µg/mL
- solubility ([1]; organic solvent or mixture, thermodynamic from solid, EtOAc, RT): 2000 to 5000 µg/mL (≈ 5.81 to 14.5 mM)
- solubility ([1]; organic solvent or mixture, thermodynamic from solid, EtOH, RT): 5500 to 11000 µg/mL (≈ 16 to 31.9 mM)
- solubility ([1]; organic solvent or mixture, thermodynamic from solid, IPA, RT): 2000 to 5000 µg/mL (≈ 5.81 to 14.5 mM)
- solubility ([1]; organic solvent or mixture, thermodynamic from solid, IPAc, RT): < 1100 µg/mL
- solubility ([1]; organic solvent or mixture, thermodynamic from solid, MIBK, RT): 2000 to 5000 µg/mL (≈ 5.81 to 14.5 mM)
- solubility ([1]; organic solvent or mixture, thermodynamic from solid, MTBE, RT): < 1000 µg/mL
- solubility ([1]; organic solvent or mixture, thermodynamic from solid, MeOH, RT): 20000 to 40000 µg/mL (≈ 58.1 to 116 mM)
- solubility ([1]; organic solvent or mixture, thermodynamic from solid, NMP, RT): > 40000 µg/mL
- solubility ([1]; organic solvent or mixture, thermodynamic from solid, Toluene, RT): < 1000 µg/mL
- solubility ([1]; organic solvent or mixture, thermodynamic from solid, n-Heptane, RT): < 1000 µg/mL
- solubility ([1]; water, thermodynamic from solid, H2O, RT): < 1000 µg/mL
- water uptake (DVS) (DVS water uptake; 25° C./80% RH): 0.1396%
- form change after DVS test (XRPD) (DVS water uptake; after DVS test): no form change
SMILES: O=C(/C=C/c1ccc2c(c1)CCN2S(=O)(=O)c1ccccc1)NO [Type A, (E)-N-hydroxy-3-(1-(phenylsulfonyl)indolin-5-yl) acrylamide]

Reference: patent US12252469B2, “Crystalline forms of (E)-N-hydroxy-3-(1-(phenylsulfonyl)indolin-5-yl)acrylamide” (ANBOGEN THERAPEUTICS INC., priority 2023, dated 2025)
